Measurements taken from US9884048B2, “ERK inhibitors” (Merck Sharp & Dohme Corp., priority 2014, dated 2018).

Each molecule was assayed against phosphorylated active hERK2 enzyme (Homo sapiens (Human), UniProt P28482). Settings: read-out: ERK2 IC50; IMAP-FP assay; 0.5 nM hERK2, 30 μM ATP; 10 point titration, 3 μM starting concentration.
Chain of phosphorylated active hERK2 enzyme (P28482 whole entry): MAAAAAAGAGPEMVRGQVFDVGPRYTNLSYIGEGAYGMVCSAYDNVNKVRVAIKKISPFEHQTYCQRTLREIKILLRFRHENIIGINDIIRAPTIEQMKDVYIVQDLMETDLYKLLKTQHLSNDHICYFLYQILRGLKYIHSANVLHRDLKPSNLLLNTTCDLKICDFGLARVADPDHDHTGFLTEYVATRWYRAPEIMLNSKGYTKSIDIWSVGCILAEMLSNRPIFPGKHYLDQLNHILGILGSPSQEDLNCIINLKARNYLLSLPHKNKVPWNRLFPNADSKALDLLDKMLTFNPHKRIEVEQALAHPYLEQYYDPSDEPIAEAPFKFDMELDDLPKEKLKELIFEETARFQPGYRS

| IC50 [nM] | Structure (SMILES) |
| --- | --- |
| 8.26 | Cc1cc(-n2ncc3c(F)c(NC(=O)N[C@H](C)c4ccccc4)ncc32)ccn1 [Example 224, (R)-1-(4-Fluoro-1-(2-methylpyridin-4-yl)-1H-pyrazolo[3,4-c]pyridin-5-yl)-3-(1-phenylethyl)urea] |
| 236 | C[C@@H](NC(=O)Nc1cc2cnn(C3CCOCC3)c2c(CO)n1)c1ccccc1 [Example 316, 1-[7-(hydroxymethyl)-1-(tetra-hydro-2H-pyran-4-yl)-1H-pyra-- zolo[3,4-c]pyridin-5-yl]-3-[(1R)-1-phenylethyl]urea] |
| 70.1 | Cc1cc(-n2ncc3cc(NC(=O)N[C@@H]4CN(C)C[C@H]4c4ccc(C)s4)ncc32)ccn1 [Example 188, 1-[(3S,4R)-1-methyl-4-(5-methylthiophen-2-yl)pyrrolidin-3-yl]-3-[1-(2-methylpyridin-4-yl)-1H-pyrazolo[3,4-c]pyridin-5-yl]urea] |
| 20.5 | Cc1cc(-n2ncc3cc(NC(=O)N[C@H]4CN(C)C[C@@H]4Oc4ccccc4)ncc32)ccn1 [Example 158, 1-[(3S,4S)-1-methyl-4-phenoxypyrrolidin-3-yl]-3-[1-(2-methylpyridin-4-yl)-1H-pyrazolo[3,4-c]pyridin-5-yl]urea] |
| 47.7 | CO[C@@H]1CN(C)C[C@H]1NC(=O)Nc1cc2cnn(-c3ccnc(C)c3)c2cn1 [Example 194, 1-[(3R,4R)-4-methoxy-1-methylpyrrolidin-3-yl]-3-[1-(2-methylpyridin-4-yl)-1H-pyrazolo[3,4-c]pyridin-5-yl]urea] |
| 60.8 | Cc1cc(-n2ncc3cc(NC(=O)N[C@@H]4CN(C(C)C)C[C@H]4c4ccccc4)ncc32)ccn1 [Example 197, 1-[(3S,4R)-1-(1-methyl-ethyl)-4-phenylpyrrolidin-3-yl]-3-[1-(2-methylpyridin-4-yl)-1H-pyrazolo[3,4-c]-pyridin-5-yl]urea] |
| 882 | COC[C@@H](NC(=O)Nc1cc2cnn(C)c2cn1)c1ccccc1 [Example 237, 1-[(1S)-2-methoxy-1-phenylethyl]-3-(1-methyl-1H-pyrazolo[3,4-c]pyridin-5-yl)urea] |
| 521 | Cc1cnc(-n2ncc3cc(NC(=O)N[C@H](C)c4ccccc4)ncc32)cn1 [Example 212, 1-[1-(5-methylpyrazin-2-yl)-1H-pyrazolo[3,4-c]pyridin-5-yl]-3-[(1R)-1-phenylethyl]urea] |
| 2160 | CC(=O)N[C@H]1CCCC[C@@H]1NC(=O)Nc1cc2cnn(-c3ccnc(C)c3)c2cn1 [Example 139, N-[(1S,2S)-2-({[1-(2-methylpyridin-4-yl)-1H-pyrazolo[3,4-c]pyridin-5-yl]carbamoyl}amino)cyclohexyl] acetamide] |
| 796 | C=CC(=O)NC[C@@H](NC(=O)Nc1cc2cnn(C)c2cn1)c1ccccc1 [Example 328, N-[(2S)-2-{[(1-Methyl-1H-pyrazolo[3,4-c]pyridin-5-yl)carbamoyl]amino}-2-phenylethyl]prop-2-enamide] |
| 920 | C[C@@H](NC(=O)Nc1cc2cnn(C)c2cn1)c1ccccc1 [Example 225, (R)-1-(1-methyl-1H-pyrazolo[3,4-c]pyridin-5-yl)-3-(1-phenylethyl)urea] |
| 0.718 | CCN1C[C@H](NC(=O)Nc2cc3cnn(-c4ccnc(C)c4)c3cn2)[C@@H](c2ccccc2)C1 [Example 199, 1-[(3R,4S)-1-ethyl-4-phenylpyrrolidin-3-yl]-3-[1-(2-methylpyridin-4-yl)-1H-pyrazolo[3,4-c]pyridin-5-yl]urea] |
| 707 | Cc1cc(-n2ncc3cc(NC(=O)NCc4sc(C(C)C)nc4C)ncc32)ccn1 [Example 68, 1-{[4-methyl-2-(1-methylethyl)-1,3-thiazol-5-yl]methyl}-3-[1-[2-methylpyridin-4-yl)-1H-pyrazolo[3,4-c]pyridin-5-yl]urea] |
| 85.1 | Cc1cc(-n2ncc3cc(NC(=O)NCC(c4ccccc4)N4CCC(F)(F)CC4)ncc32)ccn1 (stereo not drawn) [Example 55, 1-[2-(4,4-difluoropiperidin-1-yl)-2-phenylethyl]-3-[1-(2-methylpyridin-4-yl)-1H-pyrazolo[3,4-c]pyridin-5-yl]urea] |
| 122 | Cc1cc(-n2ncc3cc(NC(=O)NCC4CN(C(C)C(F)(F)F)C4)ncc32)ccn1 (stereo not drawn) [Example 27, 1-[1-(2-methylpyridin-4-yl)-1H-pyrazolo[3,4-c]pyridin-5-yl]-3-{[1-(2,2,2-trifluoro-1-methylethyl)azetidin-3-yl]methyl}urea] |
| 1240 | C[C@@H](NC(=O)Nc1cc2cnn(-c3ccc(F)cc3)c2c(CNCCN(C)C)n1)c1ccccc1 [Example 320, 1-[7-({[2-(dimethylamino)ethyl]amino}methyl)-1-(4-fluorophenyl)-1H-pyrazolo[3,4-c]pyridin-5-yl]-3-[(1R)-1-phenylethyl]urea] |
| 43.7 | CCCn1ncc2cc(NC(=O)N[C@H](C)c3ccccc3)nc(CO)c21 [Example 305, 1-[7-(hydroxymethyl)-1-propyl-1H-pyrazolo[3,4-c]pyridin-5-yl]-3-[(1R)-1-phenylethyl]urea] |
| 327 | CC(C)(O)[C@@H](NC(=O)Nc1cc2cnn(-c3ncc4c(n3)CNCC4)c2cn1)c1ccc(F)cc1 [Example 317, 1-[(1S)-1-(4-fluorophenyl)-2-hydroxy-2-methylpropyl]-3-[1-(5,6,7,8-tetrahydropyrido[3,4-d]pyrimidin-2-yl)-1H-pyrazolo[3,4-c]pyridin-5-yl]urea] |

| IC50 [nM] | Structure (SMILES) |
| --- | --- |
| 110 | C[C@@H](NC(=O)Nc1cc2cnn(CCC#N)c2c(CO)n1)c1ccccc1 [Example 323, 1-[1-(2-Cyanoethyl)-7-(hydroxymethyl)-1H-pyrazolo[3,4-c]pyridin-5-yl]-3-[(R)-1-phenylethyl]urea] |
| 475 | Cc1cc(-n2ncc3cc(NC(=O)N[C@H](Cn4ccnc4)c4ccccc4)ncc32)ccn1 [Example 134, 1-[(1S)-2-(1H-imidazol-1-yl)-1-phenylethyl]-3-[1-(2-methylpyridin-4-yl)-1H-pyrazolo[3,4-c]pyridin-5-yl]urea] |
| 15.6 | Cc1cc(-n2ncc3cc(NC(=O)N[C@H](C)c4ccccc4Cl)ncc32)ccn1 [Example 44, 1-[(1R)-1-(2-chlorophenyl)ethyl]-3-[1-(2-methylpyridin-4-yl)-1H-pyrazolo[3,4-c]pyridin-5-yl]urea] |
| 41.3 | Cn1cc(-n2ncc3cc(NC(=O)NCc4ccc(F)cc4)ncc32)cn1 [Example 4, 1-(4-fluorobenzyl)-3-[1-(1-methyl-1H-pyrazol-4-yl)-1H-pyrazolo[3,4-c]pyridin-5-yl)urea] |
| 511 | Cc1cc(-n2ncc3cc(NC(=O)N[C@H]4CCC[C@@H]4Oc4cccnc4)ncc32)ccn1 [Example 179, 1-[1-(2-methylpyridin-4-yl)-1H-pyrazolo[3,4-c]pyridin-5-yl]-3-[(1S,2S)-2-(pyridin-3-yloxy)cyclopentyl]urea] |
| 54.4 | Cc1cc(-n2ncc3cc(NC(=O)NC4CNCC4c4ccccc4)ncc32)ccn1 (stereo not drawn) [Example 63, 1-[1-(2-methylpyridin-4-yl)-1H-pyrazolo[3,4-c]pyridin-5-yl]-3-(4-phenylpyrrolidin-3-yl)urea] |
| 19.7 | O=C(NCc1ccc(Cl)c(Cl)c1)Nc1cc2cnn(-c3ccc(F)cc3)c2cn1 [Example 13, 1-(3,4-dichlorobenzyl)-3-[1-(4-fluorophenyl)-1H-pyrazolo[3,4-c]pyridin-5-yl]urea] |
| 7.09 | Cc1cc(-n2ncc3cc(NC(=O)NCC4(c5ccccc5)CCOCC4)ncc32)ccn1 [Example 52, 1-[1-(2-methylpyridin-4-yl)-1H-pyrazolo[3,4-c]pyridin-5-yl]-3-[(4-phenyltetrahydro-2H-pyran-4-yl)methyl]urea] |
| 7.66 | Cc1cc(-n2ncc3cc(NC(=O)NCC(CO)c4ccccc4)ncc32)ccn1 (stereo not drawn) [Example 49, 1-(3-hydroxy-2-phenylpropyl)-3-[1-(2-methylpyridin-4-yl)-1H-pyrazolo[3,4-c]pyridin-5-yl]urea] |
| 39.4 | Cc1cc(-n2ncc3cc(NC(=O)N[C@H]4CCCC[C@@H]4Cc4ccccc4)ncc32)ccn1 [Example 163, 1-[(1S,2R)-2-benzylcyclohexyl]-3-[1-(2-methylpyridin-4-yl)-1H-pyrazolo[3,4-c]pyridin-5-yl)urea] |
| 17.7 | Cc1cc(-n2ncc3cc(NC(=O)NCC4(c5ccccc5)CCOC4)ncc32)ccn1 (stereo not drawn) [Example 69, 1-[1-(2-methylpyridin-4-yl)-1H-pyrazolo[3,4-c]pyridin-5-yl]-3-[(3-phenyltetrahydrofuran-3-yl)methyl]urea] |
| 767 | Cc1cc(-n2ncc3cc(NC(=O)N[C@H]4CCN(C)C4)ncc32)ccn1 [Example 21, 1-[1-(2-methylpyridin-4-yl)-1H-pyrazolo[3,4-c]pyridin-5-yl]-3-[(3S)-1-methylpyrrolidin-3-yl)urea] |
| 36.9 | Cn1ncc2cc(NC(=O)N[C@@H](c3ccccc3)C(C)(C)O)ncc21 [Example 228, 1-[(1S)-2-hydroxy-2-methyl-1-phenylpropyl]-3-(1-methyl-1H-pyrazolo[3,4-c]pyridin-5-yl)urea] |
| 64.1 | CCNC(=O)n1ncc2cc(NC(=O)N[C@H](C)c3ccccc3)ncc21 [Example 231, N-ethyl-5-({[(1R)-1-phenylethyl]carbamoyl}amino)-1H-pyrazolo[3,4-c]pyridine-1-carboxamide] |
| 0.68 | COC[C@@H](NC(=O)Nc1cc2cnn(-c3ccnc(C)c3)c2cn1)c1ccccc1 [Example 90, 1-[(1S)-2-methoxy-1-phenylethyl]-3-[1-(2-methylpyridin-4-yl)-1H-pyrazolo[3,4-c]pyridin-5-yl)urea] |
| 594 | CCN1C[C@H](NC(=O)Nc2cc3cnn(-c4ccnc(C)c4)c3cn2)[C@@H](Oc2cncc(F)c2)C1 [Example 277, 1-{(3S,4S)-1-ethyl-4-[(5-fluoropyridin-3-yl)oxy]pyrrolidin-3-yl}-3-[1-(2-methylpyridin-4-yl)-1H-pyrazolo[3,4-c]pyridin-5-yl]urea] |
| 627 | Cc1cc(-n2ncc3cc(NC(=O)NCCN4CCOCC4)ncc32)ccn1 [Example 109, 1-[1-(2-methylpyridin-4-yl)-1H-pyrazolo[3,4-c]pyridin-5-yl]-3-(2-morpholin-4-ylethyl)urea] |
| 166 | Cc1cc(-n2ncc3cc(NC(=O)NC(C)c4ccc(-n5cncn5)cc4)ncc32)ccn1 (stereo not drawn) [Example 45, 1-[1-(2-methylpyridin-4-yl)-1H-pyrazolo[3,4-c]pyridin-5-yl]-3-{1-[4-(1H-1,2,4-triazol-1-yl)phenyl]ethyl}urea] |
